Assay results taken from patent publication US7312188B2, “Peptide derivatives having β-secretase inhibitory activity” (priority 2003, dated 2007).
Numbered stars: 1 amine (or outer) side, 2 acyl side, 3 side chain; on linkers, the order of the positions; unused ones are H or OH. Square brackets hold non-standard residues; d marks the D form. Peptide text beside a SMILES is read from it. * marks the point of attachment. ξ: configuration not given here. β3hPhe(2R-OH) = O=C([C@H](O)[C@H](Cc1ccccc1)N[*:1])[*:2]; Benzoyl(4-COOH) = O=C(O)c1ccc(C(=O)*)cc1; Oxalyl = O=C(C(=O)[*:2])[*:1]; 4Amb = NCc1ccc(C(=O)O)cc1; Orn = NCCC[C@H](N)C(=O)O; 2Abz = Nc1ccccc1C(=O)O; Dap = NC[C@H](N)C(=O)O; ξPip = O=C(O)C1CCCCN1

The compounds below were run against T1, recombinant human BACE-1 (rhBACE-1) (Homo sapiens, UniProt P56817) (assay: BACE1 inhibitory activity, reverse phase HPLC quantitation of N-terminal fragment of fluorogenic substrate). Conditions: 1 μL of inhibitor solution in DMSO (100 μM) in 50 μL reaction; MES buffer pH 5.0; 37° C., 60 minutes.
T1 construct: expressed as only an extracellular region (amino acid 1-460 residues) of recombinant human β-secretase; His tag (C); purchased R&D systems (Minneapolis, Minn.); host or cells: murine myeloma cell line NS0
T1 sequence (P56817 22-460 limits assumed): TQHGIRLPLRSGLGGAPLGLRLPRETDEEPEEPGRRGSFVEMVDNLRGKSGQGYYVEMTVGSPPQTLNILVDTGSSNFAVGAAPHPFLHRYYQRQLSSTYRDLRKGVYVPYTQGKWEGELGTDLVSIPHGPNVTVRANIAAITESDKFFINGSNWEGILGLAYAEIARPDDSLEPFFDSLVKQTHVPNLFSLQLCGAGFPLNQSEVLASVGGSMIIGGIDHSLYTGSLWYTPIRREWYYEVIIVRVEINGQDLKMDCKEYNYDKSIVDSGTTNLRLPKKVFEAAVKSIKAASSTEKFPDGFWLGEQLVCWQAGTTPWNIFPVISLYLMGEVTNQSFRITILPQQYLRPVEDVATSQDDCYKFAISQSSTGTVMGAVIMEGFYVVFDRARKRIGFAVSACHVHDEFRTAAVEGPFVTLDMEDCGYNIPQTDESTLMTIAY
Assay type: biochemical
Text: Experiment Regarding Measurement of BACE1 Inhibitory Activity
Enzyme Used in Measurement
As an enzyme having β-secretase activity, recombinant human BACE-1 (rhBACE-1) purchased from R&D systems (Minneapolis, Minn.) was used. rhBACE-1 is expressed as only an extracellular region (amino acid 1-460 residues) of recombinant human β-secretase, with a His tag at its carboxyl terminal in murine myeloma cell line, NS0. Purified secreted rhBACE1 is a mixture of a pro entity (about 75 kDa) and a mature entity (about 72 kDa).
Assessment of Enzyme Inhibitory Activity
Enzyme inhibitory activity of an inhibitor was assessed by quantitating an N-terminal fragment produced aftercleaving the substrate with BACE1 by reverse HPLC using (7-methoxycoumarin-4-yl)acetyl-[…]2,4-dinitrophenyl)-Arg-Arg-NH2 purchased from Peptide Institute (Osaka, Japan) as a substrate for BACE1. To 40 μL of 62.5 mM 2-(N-morpholino)ethansulfonic acid (MES)-CH3COOH—NaOH buffer (pH 5.0), were added 1 μL of a solution of an inhibitor diluted with DMSO (100 μM), 4 μL of rhBACE-1 (6.25 ng/μL), and 5 μL of an aqueous solution (50% DMSO) of 250 μM substrate (7-methoxycoumarin-4-yl)acetyl-[…]2,4-dinitrophenyl)-Arg-Arg-NH2 to initiate an enzyme reaction. After incubation at 37° C. for 60 minutes, 20 μL of 20% trichloroacetic acid was added to stop the reaction. And, inhibition % was calculated by measuring a fluorescent intensity of the N-terminal fragment (Ex, 328 nm; Em, 393 nm) using reverse phase HPLC (linear gradient of MeCN in aqueous TFA; flow rate, 1.0 mL/min).
BACE1 Inhibitory Activity
Enzyme inhibitory activity of an inhibitor was assessed by quantitating a N-terminal fragment produced after cleavage of a substrate with BACE1 by reverse phase HPLC using (7-methoxycoumarin-4-yl)acetyl-[…]2,4-dinitrophenyl)-Arg-Arg-NH2 purchased from Peptide Institute (Osaka, Japan) as a substrate for BACE1. Recombinant human BACE-1 purchased from R&D systems (Minneapolis, Minn.) was used. To 40 μL of 62.5 mM 2-(N-morpholino)ethansulfonic acid (MES)-CH3COOH—NaOH buffer (pH 5.0), were added 1 μL of a solution of an inhibitor diluted with DMSO (100 μM), 4 μL of BACE1 (6.25 ng/μL), and 5 μL of an aqueous solution (50% DMSO) of 250 μM substrate (7-methoxycoumarin-4-yl)acetyl-[…]2,4-dinitrophenyl)-Arg-Arg-NH2 to initiate an enzyme reaction. After incubation at 37° C. for 60 minutes, 20 μL of 20% trichloroacetic acid was added to stop a reaction. Inhibition % was calculated by measuring a fluorescent intensity of the N-terminal fragment (Ex, 328 nm; Em, 393 nm) using reverse phase HPLC (linear gradient of MeCN in aqueous TFA; flow rate, 1.0 mL/min).

Activity (BACE1 inhibition %) [%]	inhibition at 2 µM [%]	Compound	inhibition at 100 µM (stock) [%]
66.79		H-Glu-Val-Leu-Pns-Asp-Ala-Glu-Gly-OH (H-EVL[β3hPhe(2R-OH)]DAEG-OH; SMILES CC(C)C[C@H](NC(=O)[C@@H](NC(=O)[C@@H](N)CCC(=O)O)C(C)C)C(=O)N[C@@H](Cc1ccccc1)[C@@H](O)C(=O)N[C@@H](CC(=O)O)C(=O)N[C@@H](C)C(=O)N[C@@H](CCC(=O)O)C(=O)NCC(=O)O) [Example 45]	
96.66		β-ODap-Val-Leu-Pns-Asp-Ala-Gly-Phe-OH ({β‑ODap}-VL[β3hPhe(2R-OH)]DAGF-OH) [Example 63]	
	97.3	CC(C)C[C@H](NC(=O)[C@@H](NC(=O)[C@@H](N)CNC(=O)c1nnn[nH]1)C(C)C)C(=O)N[C@@H](Cc1ccccc1)[C@@H](O)C(=O)Nc1cccc(C(N)=O)c1 [Example 124]	
		CC(C)C[C@H](NC(=O)[C@@H](NC(=O)[C@@H](N)CNC(=O)C(=O)O)C(C)C)C(=O)N[C@@H](Cc1ccccc1)[C@@H](O)C(=O)Nc1ccc(C(=O)O)cc1 [Example 68]	98.8
		CC(C)C[C@H](NC(=O)[C@@H](NC(=O)[C@@H](N)CCC(=O)O)C(C)C)C(=O)N[C@@H](Cc1ccccc1)[C@@H](O)C(=O)Nc1cc(Cl)c(OCC(N)=O)c(Cl)c1 [Example 182]	75.7
	51.3	CC(C)C[C@H](NC(=O)[C@@H](NC(=O)[C@@H](N)CCC(=O)O)C(C)C)C(=O)N[C@@H](Cc1ccccc1)[C@@H](O)C(=O)N[C@@H](CC(=O)O)C(=O)N[C@@H](C)C(=O)NCc1ccc(C(=O)O)cc1 [Example 108] (H-EVL[β3hPhe(2R-OH)]DA[4Amb]-OH)	
	65.8	CC[C@H](C)[C@H](NC(=O)[C@@H](NC(=O)[C@@H](N)CCC(=O)O)C(C)C)C(=O)N[C@@H](Cc1ccccc1)[C@@H](O)C(=O)Nc1cccc(C(=O)O)c1 [Example 153]	
	70.4	CC(C)C[C@H](NC(=O)[C@@H](NC(=O)[C@@H](N)CCC(=O)O)C(C)C)C(=O)N[C@@H](Cc1ccccc1)[C@@H](O)C(=O)N[C@@H](CC(=O)O)C(=O)N1CCCCC1C(=O)O (stereo partly drawn) [Example 88] (H-EVL[β3hPhe(2R-OH)]D[ξPip]-OH)	
		CC(C)C[C@H](NC(=O)[C@@H](NC(=O)[C@@H](N)CNC(=O)c1[nH]c(=O)[nH]c(=O)c1F)C(C)C)C(=O)N[C@@H](Cc1ccccc1)[C@@H](O)C(=O)Nc1cccc(-c2nnn[nH]2)c1 [Example 187]	100
89.65		H-Glu-Val-Leu-Pns-Asp-Ala-Glu-Phe-OH (H-EVL[β3hPhe(2R-OH)]DAEF-OH; SMILES CC(C)C[C@H](NC(=O)[C@@H](NC(=O)[C@@H](N)CCC(=O)O)C(C)C)C(=O)N[C@@H](Cc1ccccc1)[C@@H](O)C(=O)N[C@@H](CC(=O)O)C(=O)N[C@@H](C)C(=O)N[C@@H](CCC(=O)O)C(=O)N[C@@H](Cc1ccccc1)C(=O)O) [Example 7]	
	53.6	Cc1c(NC(=O)[C@H](O)[C@H](Cc2ccccc2)NC(=O)[C@H](CC(C)C)NC(=O)[C@@H](NC(=O)[C@@H](N)CCC(=O)O)C(C)C)cccc1C(=O)O [Example 128]	
	64.1	CC(C)[C@H](NC(=O)[C@@H](N)CCC(=O)O)C(=O)N[C@H](C(=O)N[C@@H](Cc1ccccc1)[C@@H](O)C(=O)Nc1cccc(C(=O)O)c1)c1ccccc1 [Example 164]	
	82.9	CC(C)C[C@H](NC(=O)[C@@H](NC(=O)[C@@H](N)CNC(=O)c1ccc(C(=O)O)cc1)C(C)C)C(=O)N[C@@H](Cc1ccccc1)[C@@H](O)C(=O)N[C@@H](CC(=O)O)C(=O)N[C@@H](C)C(=O)N[C@@H](CCC(=O)O)C(=O)O [Example 81] (H-[Dap](Benzoyl(4-COOH))VL[β3hPhe(2R-OH)]DAE-OH)	
		CC(C)C[C@H](NC(=O)[C@@H](NC(=O)[C@@H](N)CCC(=O)O)C(C)C)C(=O)N[C@@H](Cc1ccccc1)[C@@H](O)C(=O)Nc1cc(Br)c(OCC(=O)O)c(Br)c1 [Example 184]	88.1
		CC(C)[C@H](NC(=O)[C@@H](N)CNC(=O)c1[nH]c(=O)[nH]c(=O)c1F)C(=O)N[C@@H](CC1CCCCC1)C(=O)N[C@@H](Cc1ccccc1)[C@@H](O)C(=O)Nc1cccc(-c2nnn[nH]2)c1 [Example 189]	100
	50.5	Cc1c(O)cccc1C(=O)NC[C@H](N)C(=O)N[C@H](C(=O)N[C@@H](CC(C)C)C(=O)N[C@@H](Cc1ccccc1)[C@@H](O)C(=O)Nc1cccc(C(=O)O)c1)C(C)C [Example 145]	
	69.8	CC(C)C[C@H](NC(=O)[C@@H](NC(=O)[C@@H](N)CCC(=O)O)C(C)C)C(=O)N[C@@H](Cc1ccccc1)[C@@H](O)C(=O)Nc1ccc(CC(=O)O)cc1 [Example 89]	
	83.2	CC(C)C[C@H](NC(=O)[C@@H](NC(=O)[C@@H](N)CCC(=O)O)C(C)C)C(=O)N[C@@H](Cc1ccccc1)[C@@H](O)C(=O)N[C@@H](CC(=O)O)C(=O)N[C@@H](Cc1ccccc1)C(=O)N[C@@H](CCC(=O)O)C(=O)N[C@@H](Cc1ccccc1)C(=O)O [Example 80] (H-EVL[β3hPhe(2R-OH)]DFEF-OH)	
	71.3	CC(C)[C@H](NC(=O)[C@@H](N)CCC(=O)O)C(=O)N[C@@H](Cc1cc2ccccc2[nH]1)C(=O)N[C@@H](Cc1ccccc1)[C@@H](O)C(=O)Nc1cccc(C(=O)O)c1 [Example 160]	
	98.4	CC(C)C[C@H](NC(=O)[C@@H](NC(=O)[C@@H](N)CNC(=O)C(=O)O)C(C)C)C(=O)N[C@@H](Cc1ccccc1)[C@@H](O)C(=O)Nc1cccc(C(=O)O)c1 [Example 69]	
		CC(C)C[C@H](NC(=O)[C@@H](NC(=O)[C@@H](N)CCC(=O)O)C(C)C)C(=O)N[C@@H](Cc1ccccc1)[C@@H](O)C(=O)NC1CCCC(C(=O)O)C1 (stereo partly drawn) [Example 155]	69.7
	56.1	CC(C)C[C@H](NC(=O)[C@@H](NC(=O)[C@@H](N)CCCNC(=O)C(=O)O)C(C)C)C(=O)N[C@@H](Cc1ccccc1)[C@@H](O)C(=O)N[C@@H](CC(=O)O)C(=O)N[C@@H](C)C(=O)N[C@@H](CCC(=O)O)C(=O)O [Example 101] (H-[Orn](Oxalyl)VL[β3hPhe(2R-OH)]DAE-OH)	
	91.8	CC(C)C[C@H](NC(=O)[C@@H](NC(=O)[C@@H](N)CNC(=O)c1cc(N)cc(C(=O)O)c1)C(C)C)C(=O)N[C@@H](Cc1ccccc1)[C@@H](O)C(=O)Nc1cccc(C(N)=O)c1 [Example 171]	
		CC(C)C[C@H](NC(=O)[C@@H](NC(=O)[C@@H](N)CCC(=O)O)C(C)C)C(=O)N[C@@H](Cc1ccccc1)[C@@H](O)C(=O)N[C@@H](CC(=O)O)C(=O)N[C@@H](C)C(=O)Nc1ccccc1C(=O)O [Example 87] (H-EVL[β3hPhe(2R-OH)]DA[2Abz]-OH)	72.2
	71.5	CC(C)C[C@H](NC(=O)[C@@H](NC(=O)[C@@H](N)CCC(=O)O)C(C)C)C(=O)N[C@@H](Cc1ccccc1)[C@@H](O)C(=O)NCc1ccc(Cl)c(Cl)c1 [Example 162]	
	61.8	CC(C)C[C@H](NC(=O)[C@@H](NC(=O)[C@@H](N)CCC(=O)O)C(C)C)C(=O)N[C@@H](Cc1ccccc1)[C@@H](O)C(=O)N[C@@H](CC(=O)O)C(=O)N[C@@H](C)C(=O)N1CCCCC1C(=O)O (single isomer, unassigned) [Example 94]	
	80.1	CC(C)C[C@H](NC(=O)[C@@H](NC(=O)[C@@H](N)CCC(=O)O)C(C)C)C(=O)N[C@@H](Cc1ccccc1)[C@@H](O)C(=O)Nc1ccc(Cl)c(C(=O)O)c1 [Example 83]	
	58.4	CC(C)C[C@H](NC(=O)[C@@H](NC(=O)[C@@H](N)CCC(=O)O)C(C)C)C(=O)N[C@@H](Cc1ccccc1)[C@@H](O)C(=O)N[C@@H](CC(=O)O)C(=O)N[C@@H](C)C(=O)N[C@@H](CC(=O)O)C(=O)O [Example 98] (H-EVL[β3hPhe(2R-OH)]DAD-OH)	
	99.8	CC(C)[C@H](NC(=O)[C@@H](N)CNC(=O)c1nnn[nH]1)C(=O)N[C@@H](CC1CCCCC1)C(=O)N[C@@H](Cc1ccccc1)[C@@H](O)C(=O)Nc1cc(C(=O)O)cc(C(=O)O)c1 [Example 135]	
	98.9	CC(C)C[C@H](NC(=O)[C@@H](NC(=O)[C@@H](N)CNC(=O)C(=O)O)C(C)C)C(=O)N[C@@H](CC1CCCCC1)[C@@H](O)C(=O)Nc1cccc(C(=O)O)c1 [Example 126]	
